# Measurements as given in ChEMBL document CHEMBL3132769, “Fragment growing to retain or alter the selectivity of anchored kinase hinge-binding fragments” (Medchemcomm, 2014).
# Columns and labels:
# [1] = biological target: T1, Serine/threonine-protein kinase Sgk3 (Homo sapiens) (UniProt Q96BR1); assay: Inhibition of human full length SGK3 expressed in baculovirus assessed as substrate phosphorylation using fluorescence-labelled peptides as substrate at 8 uM after 90 mins by microfluidic peptide phosphorylation assay
# T1 sequence (whole entry): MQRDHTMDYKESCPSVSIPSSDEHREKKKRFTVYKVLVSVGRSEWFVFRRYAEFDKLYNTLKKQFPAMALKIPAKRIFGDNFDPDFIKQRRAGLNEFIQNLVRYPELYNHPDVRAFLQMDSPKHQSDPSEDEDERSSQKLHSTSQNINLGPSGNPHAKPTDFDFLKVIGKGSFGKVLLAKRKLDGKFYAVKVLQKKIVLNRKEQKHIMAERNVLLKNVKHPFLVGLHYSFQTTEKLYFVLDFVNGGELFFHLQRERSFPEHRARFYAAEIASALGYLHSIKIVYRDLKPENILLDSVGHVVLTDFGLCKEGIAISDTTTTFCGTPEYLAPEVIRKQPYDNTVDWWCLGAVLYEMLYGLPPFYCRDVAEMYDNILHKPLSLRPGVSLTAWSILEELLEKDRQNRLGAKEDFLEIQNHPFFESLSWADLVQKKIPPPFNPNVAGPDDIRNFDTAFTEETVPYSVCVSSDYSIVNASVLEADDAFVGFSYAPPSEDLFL
# [2] = biological target: Calcium/calmodulin-dependent protein kinase type II subunit gamma (Homo sapiens) (UniProt Q13555); assay: Inhibition of human CAMK2 gamma catalytic domain expressed in baculovirus assessed as substrate phosphorylation using fluorescence-labelled peptides as substrate at 8 uM after 90 mins by microfluidic peptide phosphorylation assay
# Calcium/calmodulin-dependent protein kinase type II subunit gamma (Homo sapiens), sequence (Q13555 whole entry, the tested form may be a part): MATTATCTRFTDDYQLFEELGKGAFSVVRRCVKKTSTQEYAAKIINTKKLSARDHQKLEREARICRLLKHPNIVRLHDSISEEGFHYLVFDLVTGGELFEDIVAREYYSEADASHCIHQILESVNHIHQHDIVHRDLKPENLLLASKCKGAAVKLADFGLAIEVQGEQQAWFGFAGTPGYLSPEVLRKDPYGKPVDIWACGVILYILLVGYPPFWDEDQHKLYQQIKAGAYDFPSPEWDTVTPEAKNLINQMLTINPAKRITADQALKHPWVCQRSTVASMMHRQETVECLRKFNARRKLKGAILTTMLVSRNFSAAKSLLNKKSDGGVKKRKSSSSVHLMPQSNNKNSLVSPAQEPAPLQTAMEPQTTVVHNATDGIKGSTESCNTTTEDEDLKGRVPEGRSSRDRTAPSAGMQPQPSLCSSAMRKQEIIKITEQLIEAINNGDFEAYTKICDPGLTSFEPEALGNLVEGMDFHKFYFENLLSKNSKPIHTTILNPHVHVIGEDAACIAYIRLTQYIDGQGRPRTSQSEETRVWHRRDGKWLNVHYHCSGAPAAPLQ
# [3] = biological target: Protein kinase C delta type (Homo sapiens) (UniProt Q05655); assay: Inhibition of human truncated PKC delta expressed in baculovirus assessed as substrate phosphorylation using fluorescence-labelled peptides as substrate at 0.06 uM after 90 mins by microfluidic peptide phosphorylation assay
# Protein kinase C delta type (Homo sapiens), sequence (Q05655 whole entry, looked up, the tested form may be a part): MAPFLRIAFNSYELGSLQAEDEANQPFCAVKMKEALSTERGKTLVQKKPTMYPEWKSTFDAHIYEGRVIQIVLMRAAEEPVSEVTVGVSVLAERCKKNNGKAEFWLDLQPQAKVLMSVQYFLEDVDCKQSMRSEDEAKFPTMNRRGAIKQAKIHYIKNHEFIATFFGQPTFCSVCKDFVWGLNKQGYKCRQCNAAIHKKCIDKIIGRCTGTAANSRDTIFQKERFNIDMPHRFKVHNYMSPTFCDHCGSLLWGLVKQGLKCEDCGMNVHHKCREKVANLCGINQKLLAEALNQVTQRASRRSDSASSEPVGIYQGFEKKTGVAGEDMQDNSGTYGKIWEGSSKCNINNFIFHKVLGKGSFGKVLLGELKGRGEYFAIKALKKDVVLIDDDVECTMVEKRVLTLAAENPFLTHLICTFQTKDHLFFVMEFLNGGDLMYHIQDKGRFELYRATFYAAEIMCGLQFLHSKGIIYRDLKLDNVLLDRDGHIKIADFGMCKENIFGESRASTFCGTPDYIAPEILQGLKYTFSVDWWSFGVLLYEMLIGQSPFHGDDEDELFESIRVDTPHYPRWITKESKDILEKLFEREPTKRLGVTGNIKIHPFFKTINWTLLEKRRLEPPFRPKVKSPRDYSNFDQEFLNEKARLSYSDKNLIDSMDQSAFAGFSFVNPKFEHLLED
# [4] = biological target: Mitogen-activated protein kinase kinase kinase kinase 4 (Homo sapiens) (UniProt O95819); assay: Inhibition of human HGK catalytic domain expressed in baculovirus assessed as substrate phosphorylation using fluorescence-labelled peptides as substrate at 0.06 uM after 90 mins by microfluidic peptide phosphorylation assay
# Mitogen-activated protein kinase kinase kinase kinase 4 (Homo sapiens), sequence (O95819 2-1239 limits assumed): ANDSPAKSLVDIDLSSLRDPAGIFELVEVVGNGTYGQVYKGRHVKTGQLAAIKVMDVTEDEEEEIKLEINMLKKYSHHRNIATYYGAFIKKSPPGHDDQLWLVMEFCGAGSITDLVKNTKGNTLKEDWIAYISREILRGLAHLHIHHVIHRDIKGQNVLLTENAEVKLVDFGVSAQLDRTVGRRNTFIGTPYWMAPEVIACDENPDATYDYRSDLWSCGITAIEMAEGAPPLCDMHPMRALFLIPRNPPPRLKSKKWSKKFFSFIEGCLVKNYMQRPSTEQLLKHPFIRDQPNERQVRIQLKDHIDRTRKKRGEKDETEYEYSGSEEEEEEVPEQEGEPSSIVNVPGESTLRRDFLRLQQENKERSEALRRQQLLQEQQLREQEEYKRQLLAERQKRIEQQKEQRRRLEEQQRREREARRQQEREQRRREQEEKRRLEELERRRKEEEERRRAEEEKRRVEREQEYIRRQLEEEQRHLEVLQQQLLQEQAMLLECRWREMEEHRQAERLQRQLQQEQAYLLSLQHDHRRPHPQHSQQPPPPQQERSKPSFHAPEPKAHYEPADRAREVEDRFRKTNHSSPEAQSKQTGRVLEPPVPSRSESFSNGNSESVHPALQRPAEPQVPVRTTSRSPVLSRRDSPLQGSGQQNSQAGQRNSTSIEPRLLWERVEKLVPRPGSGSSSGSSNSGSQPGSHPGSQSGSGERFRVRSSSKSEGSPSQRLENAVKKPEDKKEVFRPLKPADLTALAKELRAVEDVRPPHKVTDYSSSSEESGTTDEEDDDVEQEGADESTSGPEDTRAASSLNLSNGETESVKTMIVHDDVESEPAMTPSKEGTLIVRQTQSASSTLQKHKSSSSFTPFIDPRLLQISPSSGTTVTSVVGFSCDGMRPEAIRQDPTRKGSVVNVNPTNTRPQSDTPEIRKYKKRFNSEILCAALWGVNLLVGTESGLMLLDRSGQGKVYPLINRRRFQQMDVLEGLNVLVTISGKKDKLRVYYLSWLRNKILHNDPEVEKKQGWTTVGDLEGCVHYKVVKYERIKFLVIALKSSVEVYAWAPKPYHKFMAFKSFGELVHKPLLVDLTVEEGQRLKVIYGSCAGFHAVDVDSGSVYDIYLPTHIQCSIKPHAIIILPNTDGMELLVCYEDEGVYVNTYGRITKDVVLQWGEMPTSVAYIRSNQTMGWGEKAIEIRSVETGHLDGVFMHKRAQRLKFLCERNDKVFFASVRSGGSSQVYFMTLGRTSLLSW
# [5] = biological target: Insulin receptor (Homo sapiens) (UniProt P06213); assay: Inhibition of human INSR catalytic domain expressed in baculovirus assessed as substrate phosphorylation using fluorescence-labelled peptides as substrate at […] after 90 mins by microfluidic peptide phosphorylation assay
# [6] = biological target: Fibroblast growth factor receptor 3 (Homo sapiens) (UniProt P22607); assay: Inhibition of human FGFR3 catalytic domain expressed in baculovirus assessed as substrate phosphorylation using fluorescence-labelled peptides as substrate at 9 uM after 90 mins by microfluidic peptide phosphorylation assay
# Fibroblast growth factor receptor 3 (Homo sapiens), sequence (P22607 23-806 limits assumed): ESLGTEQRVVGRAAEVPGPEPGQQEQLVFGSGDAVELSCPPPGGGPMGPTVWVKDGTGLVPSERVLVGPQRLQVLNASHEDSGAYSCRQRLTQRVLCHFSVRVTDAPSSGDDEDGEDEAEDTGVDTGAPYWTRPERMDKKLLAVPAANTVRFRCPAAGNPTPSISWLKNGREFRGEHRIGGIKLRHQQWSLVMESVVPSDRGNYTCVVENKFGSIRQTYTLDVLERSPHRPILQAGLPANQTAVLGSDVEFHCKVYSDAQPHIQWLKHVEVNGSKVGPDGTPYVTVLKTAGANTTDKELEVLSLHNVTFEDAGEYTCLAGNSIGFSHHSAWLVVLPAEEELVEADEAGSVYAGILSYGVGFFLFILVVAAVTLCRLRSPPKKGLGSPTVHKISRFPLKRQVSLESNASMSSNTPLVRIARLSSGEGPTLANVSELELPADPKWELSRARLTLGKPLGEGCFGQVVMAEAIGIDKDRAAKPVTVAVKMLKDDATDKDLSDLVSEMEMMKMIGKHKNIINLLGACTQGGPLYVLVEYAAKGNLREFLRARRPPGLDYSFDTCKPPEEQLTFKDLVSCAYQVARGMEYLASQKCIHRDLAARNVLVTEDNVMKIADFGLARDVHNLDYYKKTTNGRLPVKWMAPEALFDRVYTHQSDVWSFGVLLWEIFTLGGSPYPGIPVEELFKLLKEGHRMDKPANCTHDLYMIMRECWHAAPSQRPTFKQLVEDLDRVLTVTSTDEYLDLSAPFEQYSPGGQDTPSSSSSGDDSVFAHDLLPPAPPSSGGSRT
# [7] = biological target: T2, Serine/threonine-protein kinase Chk1 (Homo sapiens) (UniProt O14757); assay: Inhibition of human full length CHK1 expressed in baculovirus assessed as substrate phosphorylation using fluorescence-labelled peptides as substrate at 95 uM after 90 mins by microfluidic peptide phosphorylation assay
# T2 sequence (whole entry): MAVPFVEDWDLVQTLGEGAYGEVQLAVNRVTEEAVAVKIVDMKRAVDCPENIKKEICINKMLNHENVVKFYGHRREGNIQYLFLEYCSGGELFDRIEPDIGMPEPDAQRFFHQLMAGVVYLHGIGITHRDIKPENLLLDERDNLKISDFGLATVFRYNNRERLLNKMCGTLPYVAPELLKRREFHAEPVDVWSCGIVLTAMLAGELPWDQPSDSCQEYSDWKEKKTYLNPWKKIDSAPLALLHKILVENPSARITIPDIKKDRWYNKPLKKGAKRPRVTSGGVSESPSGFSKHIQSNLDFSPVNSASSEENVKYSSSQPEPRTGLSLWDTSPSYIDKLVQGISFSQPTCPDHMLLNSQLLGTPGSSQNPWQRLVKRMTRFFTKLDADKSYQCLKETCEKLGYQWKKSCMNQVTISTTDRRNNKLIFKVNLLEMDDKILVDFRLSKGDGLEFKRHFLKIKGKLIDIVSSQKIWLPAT
# [8] = biological target: T1, Serine/threonine-protein kinase Sgk3 (Homo sapiens); assay: Inhibition of human full length SGK3 expressed in baculovirus assessed as substrate phosphorylation using fluorescence-labelled peptides as substrate at 1000 uM after 90 mins by microfluidic peptide phosphorylation assay
# [9] = biological target: Serine/threonine-protein kinase MARK2 (Homo sapiens) (UniProt Q7KZI7); assay: Inhibition of human full length MARK2 expressed in baculovirus assessed as substrate phosphorylation using fluorescence-labelled peptides as substrate at 1000 uM after 90 mins by microfluidic peptide phosphorylation assay
# Serine/threonine-protein kinase MARK2 (Homo sapiens), sequence (Q7KZI7 whole entry, the tested form may be a part): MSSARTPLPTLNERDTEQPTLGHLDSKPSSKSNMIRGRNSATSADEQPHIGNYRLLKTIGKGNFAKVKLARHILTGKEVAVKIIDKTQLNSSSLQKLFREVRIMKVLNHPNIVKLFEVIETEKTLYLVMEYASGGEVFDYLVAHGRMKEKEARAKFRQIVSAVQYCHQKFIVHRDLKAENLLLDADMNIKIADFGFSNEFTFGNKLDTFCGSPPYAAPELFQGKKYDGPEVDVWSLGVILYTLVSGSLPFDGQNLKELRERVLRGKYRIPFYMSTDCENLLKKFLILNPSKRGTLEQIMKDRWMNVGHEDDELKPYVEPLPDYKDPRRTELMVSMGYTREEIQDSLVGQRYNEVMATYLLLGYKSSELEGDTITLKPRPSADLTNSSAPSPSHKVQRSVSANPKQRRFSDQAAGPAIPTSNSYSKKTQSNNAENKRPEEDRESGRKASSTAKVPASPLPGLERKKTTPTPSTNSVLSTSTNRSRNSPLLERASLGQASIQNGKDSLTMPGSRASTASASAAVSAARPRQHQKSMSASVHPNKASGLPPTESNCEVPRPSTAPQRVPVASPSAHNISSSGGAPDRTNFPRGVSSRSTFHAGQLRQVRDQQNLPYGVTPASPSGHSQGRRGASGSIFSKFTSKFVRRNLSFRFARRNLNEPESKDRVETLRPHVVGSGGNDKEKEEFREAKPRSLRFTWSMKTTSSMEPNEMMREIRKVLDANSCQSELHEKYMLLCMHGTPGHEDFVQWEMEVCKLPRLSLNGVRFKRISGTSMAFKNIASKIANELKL
# Homo sapiens = species: Homo sapiens; assay: Inhibition of human P70S6K catalytic domain expressed in baculovirus assessed as substrate phosphorylation using fluorescence-labelled peptides as substrate at 70 uM after 90 mins by microfluidic peptide phosphorylation assay
# [10] = biological target: Tyrosine-protein kinase Lyn (Homo sapiens) (UniProt P07948); assay: Inhibition of human full length LYN expressed in baculovirus assessed as substrate phosphorylation using fluorescence-labelled peptides as substrate at 420 uM after 90 mins by microfluidic peptide phosphorylation assay
# Tyrosine-protein kinase Lyn (Homo sapiens), sequence (P07948 2-512 limits assumed): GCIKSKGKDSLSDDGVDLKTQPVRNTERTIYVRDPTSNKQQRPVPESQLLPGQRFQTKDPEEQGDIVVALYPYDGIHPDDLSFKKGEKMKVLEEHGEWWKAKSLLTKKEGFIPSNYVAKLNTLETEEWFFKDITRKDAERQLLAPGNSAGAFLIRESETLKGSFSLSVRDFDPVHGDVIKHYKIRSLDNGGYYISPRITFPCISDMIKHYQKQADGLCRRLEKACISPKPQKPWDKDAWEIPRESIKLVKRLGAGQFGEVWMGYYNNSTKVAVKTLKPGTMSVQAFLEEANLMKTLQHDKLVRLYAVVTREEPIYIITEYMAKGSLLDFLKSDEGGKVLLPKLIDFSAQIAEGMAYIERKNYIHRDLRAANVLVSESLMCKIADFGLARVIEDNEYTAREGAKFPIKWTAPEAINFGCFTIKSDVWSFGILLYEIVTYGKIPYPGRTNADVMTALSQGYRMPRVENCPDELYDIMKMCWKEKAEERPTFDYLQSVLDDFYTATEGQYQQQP
# [11] = biological target: T3, Serine/threonine-protein kinase D3 (Homo sapiens) (UniProt O94806); assay: Inhibition of human full length PKD3 expressed in baculovirus assessed as substrate phosphorylation using fluorescence-labelled peptides as substrate at 420 uM after 90 mins by microfluidic peptide phosphorylation assay
# T3 sequence (whole entry): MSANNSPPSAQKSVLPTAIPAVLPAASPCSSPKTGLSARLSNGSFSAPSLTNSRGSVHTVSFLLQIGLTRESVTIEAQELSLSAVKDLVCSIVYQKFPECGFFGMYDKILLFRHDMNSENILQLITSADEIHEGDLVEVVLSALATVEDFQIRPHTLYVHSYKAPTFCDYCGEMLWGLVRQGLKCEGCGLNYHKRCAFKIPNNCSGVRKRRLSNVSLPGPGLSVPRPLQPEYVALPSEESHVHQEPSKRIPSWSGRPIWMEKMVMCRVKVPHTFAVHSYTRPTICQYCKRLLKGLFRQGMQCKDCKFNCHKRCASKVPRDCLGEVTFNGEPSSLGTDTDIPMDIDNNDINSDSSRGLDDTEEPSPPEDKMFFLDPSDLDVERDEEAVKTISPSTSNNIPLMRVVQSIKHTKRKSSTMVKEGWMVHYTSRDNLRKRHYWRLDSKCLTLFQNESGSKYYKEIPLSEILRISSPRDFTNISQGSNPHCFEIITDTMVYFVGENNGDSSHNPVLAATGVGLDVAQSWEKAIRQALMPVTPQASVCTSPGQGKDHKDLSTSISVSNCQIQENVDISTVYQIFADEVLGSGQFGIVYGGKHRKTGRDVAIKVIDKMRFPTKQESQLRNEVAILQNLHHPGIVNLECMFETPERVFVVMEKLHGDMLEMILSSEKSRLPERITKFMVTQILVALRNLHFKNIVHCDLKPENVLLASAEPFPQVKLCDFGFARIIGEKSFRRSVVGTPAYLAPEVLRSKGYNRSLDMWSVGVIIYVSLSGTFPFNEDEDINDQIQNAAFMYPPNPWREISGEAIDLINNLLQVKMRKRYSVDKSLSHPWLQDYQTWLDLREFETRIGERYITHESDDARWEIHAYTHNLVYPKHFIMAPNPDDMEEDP
smiles,measurement,setting,value
NCC1CCN(c2ncnc3[nH]ccc23)CC1,inhibition,[1],83%
same,inhibition,[2],20.5%
NC1(Cc2ccc(Cl)cc2)CCN(c2ncnc3[nH]ccc23)CC1,inhibition,[3],2%
same,inhibition,[4],1%
COC(=O)c1cnc(Nc2cnc(C#N)cn2)cc1NCC1CCNCC1,inhibition,[5],7%
NCC1CN(c2ncnc3[nH]c4cnccc4c23)CCO1 (configuration not stated),inhibition,[6],43.5%
NCCc1ccc(-c2ncnc3[nH]cnc23)cc1,inhibition,[7],75.5%
c1cnc2[nH]ccc2c1,inhibition,[8],80.5%
same,inhibition,[9],75%
CNCc1ccc(-c2ncnc3[nH]cnc23)cc1,inhibition,Homo sapiens,29.5%
c1nc(N2CCOCC2)c2nc[nH]c2n1,inhibition,[10],68%
same,inhibition,[11],85%
